Data taken from ChEMBL document CHEMBL3045389, “Synthesis and insect antifeedant activity of plumbagin derivatives” (2012).

Tests used:
Achaea janata = assay: Antifeedant activity against prestarved healthy third-instar larval stage of Achaea janata assessed as area of leaf consumed after 6 hr by conventional no-choice leaf-disk bioassay; assay type: functional
Spodoptera litura = assay: Antifeedant activity against prestarved healthy third-instar larval stage of Spodoptera litura assessed as area of leaf consumed after 6 hr by conventional no-choice leaf-disk bioassay; assay type: functional

Structure (SMILES) | ED50 (Achaea janata) [microg/cm2] | ED50 (Spodoptera litura) [microg/cm2]
CCCCCCCCNC1=C(C)C(=O)c2cccc(OC)c2C1=O | 44.76 | >500
C/C=C(\C)C(=O)O[C@H]1C[C@@H](OC(C)=O)[C@@]2(C(=O)OC)CO[C@H]3[C@@H](O)[C@@](C)([C@]45O[C@@]4(C)[C@@H]4C[C@H]5O[C@@H]5OC=C[C@@]54O)[C@H]4[C@]1(CO[C@]4(O)C(=O)OC)[C@@H]32 [AZADIRACHTIN A] | 0.72 | 0.89
CCCCCCCCCCCCCCCCNC1=C(C)C(=O)c2cccc(OC)c2C1=O | 64.23 | 16.77
C=CCNC1=C(C)C(=O)c2cccc(OC)c2C1=O | 13.51 | 31.22
CCCCCCNC1=C(C)C(=O)c2cccc(OC)c2C1=O | 73.31 | 278.34
COc1cccc2c1C(=O)C(NCc1ccccc1)=C(C)C2=O | >500 | >500
CCCCCCCCCCNC1=C(C)C(=O)c2cccc(OC)c2C1=O | 30.25 | 31.109
CCCCCCCCCCCCNC1=C(C)C(=O)c2cccc(OC)c2C1=O | 59.62 | >500
COc1cccc2c1C(=O)C(NCc1ccc(F)cc1)=C(C)C2=O | 51.091 | 302.32
CC1=CC(=O)c2c(O)cccc2C1=O [PLUMBAGIN] | 23.97 | 43.71
CCCNC1=C(C)C(=O)c2cccc(OC)c2C1=O | >500 | >500
CCCCNC1=C(C)C(=O)c2cccc(OC)c2C1=O | >500 | 64.08
CCCCCCCC/C=C/CCCCCCCCNC1=C(C)C(=O)c2cccc(OC)c2C1=O | 26.49 | 180.36
COc1cccc2c1C(=O)C(NCc1ccc(C(F)(F)F)cc1)=C(C)C2=O | 21.82 | >500
CCCCCCCCCNC1=C(C)C(=O)c2cccc(OC)c2C1=O | 24.04 | 32.5
CCNC1=C(C)C(=O)c2cccc(OC)c2C1=O | 24.41 | >500
COc1ccc(CNC2=C(C)C(=O)c3cccc(OC)c3C2=O)cc1 | >500 | >500
